# Measurements: PubChem BioAssay (NCI)
#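 A five-concentration, 48-hour dose response in 96-well plates underlies each endpoint, interpolated linearly between surrounding concentrations. Abbreviation: GI50, concentration required for 50% inhibition of growth. TGI is the concentration that stops growth completely.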
# How the values were obtained:
# Assay in all cases: NCI-60 cell line screen, 48 h
# 786-0 renal = tested on: 786-0 renal
# A498 renal = tested on: A498 renal
# A549 NSCLC = tested on: A549 NSCLC
# ACHN renal = tested on: ACHN renal
# BT-549 breast = tested on: BT-549 breast
# CAKI-1 renal = tested on: CAKI-1 renal
# CCRF-CEM leukemia = tested on: CCRF-CEM leukemia
# COLO 205 colon = tested on: COLO 205 colon
# DU-145 prostate = tested on: DU-145 prostate
# EKVX NSCLC = tested on: EKVX NSCLC
# HCC-2998 colon = tested on: HCC-2998 colon
# HCT-116 colon = tested on: HCT-116 colon
# HCT-15 colon = tested on: HCT-15 colon
# HL-60(TB) leukemia = tested on: HL-60(TB) leukemia
# HOP-62 NSCLC = tested on: HOP-62 NSCLC
# HOP-92 NSCLC = tested on: HOP-92 NSCLC
# HS 578T breast = tested on: HS 578T breast
# HT29 colon = tested on: HT29 colon
# IGROV1 ovarian = tested on: IGROV1 ovarian
# K-562 leukemia = tested on: K-562 leukemia
# KM12 colon = tested on: KM12 colon
# LOX IMVI melanoma = tested on: LOX IMVI melanoma
# M14 melanoma = tested on: M14 melanoma
# MALME-3M melanoma = tested on: MALME-3M melanoma
# MCF7 breast = tested on: MCF7 breast
# MDA-MB-231 breast = tested on: MDA-MB-231 breast
# MDA-MB-435 = tested on: MDA-MB-435
# MOLT-4 leukemia = tested on: MOLT-4 leukemia
# NCI-H226 lung = tested on: NCI-H226 lung
# NCI-H23 lung = tested on: NCI-H23 lung
# NCI-H460 lung = tested on: NCI-H460 lung
# NCI-H522 lung = tested on: NCI-H522 lung
# NCI/ADR-RES ovarian = tested on: NCI/ADR-RES ovarian
# OVCAR-3 ovarian = tested on: OVCAR-3 ovarian
# OVCAR-4 ovarian = tested on: OVCAR-4 ovarian
# OVCAR-5 ovarian = tested on: OVCAR-5 ovarian
# OVCAR-8 ovarian = tested on: OVCAR-8 ovarian
# PC-3 prostate = tested on: PC-3 prostate
# RPMI-8226 leukemia = tested on: RPMI-8226 leukemia
# RXF 393 renal = tested on: RXF 393 renal
# SF-268 CNS = tested on: SF-268 CNS
# SF-295 CNS = tested on: SF-295 CNS
# SF-539 CNS = tested on: SF-539 CNS
# SK-MEL-2 melanoma = tested on: SK-MEL-2 melanoma
# SK-MEL-28 melanoma = tested on: SK-MEL-28 melanoma
# SK-MEL-5 melanoma = tested on: SK-MEL-5 melanoma
# SK-OV-3 ovarian = tested on: SK-OV-3 ovarian
# SN12C renal = tested on: SN12C renal
# SNB-19 CNS = tested on: SNB-19 CNS
# SNB-75 CNS = tested on: SNB-75 CNS
# SR leukemia = tested on: SR leukemia
# SW-620 colon = tested on: SW-620 colon
# T-47D breast = tested on: T-47D breast
# TK-10 renal = tested on: TK-10 renal
# U251 CNS = tested on: U251 CNS
# UACC-257 melanoma = tested on: UACC-257 melanoma
# UACC-62 melanoma = tested on: UACC-62 melanoma
# UO-31 renal = tested on: UO-31 renal
compound,measurement,setting,value
O=C1CCc2c(Oc3ccc4c(c3)[C@H]3[C@@H](O4)[C@@H]3c3nc4ccc(C(F)(F)F)cc4[nH]3)ccnc2N1,GI50,786-0 renal,6.28 µM
same,TGI,786-0 renal,> 100 µM
same,GI50,A498 renal,1120 nM
same,TGI,A498 renal,4.24 µM
same,GI50,A549 NSCLC,2520 nM
same,TGI,A549 NSCLC,> 100 µM
same,GI50,ACHN renal,711 nM
same,TGI,ACHN renal,> 100 µM
same,GI50,BT-549 breast,3.22 µM
same,TGI,BT-549 breast,> 100 µM
same,GI50,CAKI-1 renal,1470 nM
same,TGI,CAKI-1 renal,> 100 µM
same,GI50,CCRF-CEM leukemia,3.54 µM
same,TGI,CCRF-CEM leukemia,> 100 µM
same,GI50,COLO 205 colon,35.9 nM
same,TGI,COLO 205 colon,8.39 µM
same,GI50,DU-145 prostate,4.12 µM
same,TGI,DU-145 prostate,> 100 µM
same,GI50,EKVX NSCLC,2990 nM
same,TGI,EKVX NSCLC,> 100 µM
same,GI50,HCC-2998 colon,3.08 µM
same,TGI,HCC-2998 colon,> 100 µM
same,GI50,HCT-116 colon,406 nM
same,TGI,HCT-116 colon,> 100 µM
same,GI50,HCT-15 colon,2400 nM
same,TGI,HCT-15 colon,> 100 µM
same,GI50,HL-60(TB) leukemia,237 nM
same,TGI,HL-60(TB) leukemia,3.14 µM
same,GI50,HOP-62 NSCLC,2450 nM
same,TGI,HOP-62 NSCLC,> 100 µM
same,GI50,HOP-92 NSCLC,1180 nM
same,TGI,HOP-92 NSCLC,5.68 µM
same,GI50,HS 578T breast,5.41 µM
same,TGI,HS 578T breast,> 100 µM
same,GI50,HT29 colon,30.2 nM
same,TGI,HT29 colon,> 37.6 µM
same,GI50,IGROV1 ovarian,1190 nM
same,TGI,IGROV1 ovarian,> 100 µM
same,GI50,K-562 leukemia,38.1 nM
same,GI50,KM12 colon,690 nM
same,TGI,KM12 colon,> 100 µM
same,GI50,LOX IMVI melanoma,102 nM
same,TGI,LOX IMVI melanoma,4.65 µM
same,GI50,M14 melanoma,26 nM
same,TGI,M14 melanoma,2710 nM
same,GI50,MALME-3M melanoma,< 13.7 nM
same,TGI,MALME-3M melanoma,61.3 nM
same,GI50,MCF7 breast,2250 nM
same,TGI,MCF7 breast,> 100 µM
same,GI50,MDA-MB-231 breast,610 nM
same,TGI,MDA-MB-231 breast,8.28 µM
same,GI50,MDA-MB-435,68.2 nM
same,TGI,MDA-MB-435,> 100 µM
same,GI50,MOLT-4 leukemia,1660 nM
same,TGI,MOLT-4 leukemia,> 100 µM
same,GI50,NCI-H226 lung,1100 nM
same,TGI,NCI-H226 lung,> 100 µM
same,GI50,NCI-H23 lung,1420 nM
same,TGI,NCI-H23 lung,> 100 µM
same,GI50,NCI-H460 lung,2410 nM
same,TGI,NCI-H460 lung,> 100 µM
same,GI50,NCI-H522 lung,903 nM
same,TGI,NCI-H522 lung,> 28.1 µM
same,GI50,NCI/ADR-RES ovarian,2830 nM
same,TGI,NCI/ADR-RES ovarian,> 100 µM
same,GI50,OVCAR-3 ovarian,4.18 µM
same,TGI,OVCAR-3 ovarian,> 100 µM
same,GI50,OVCAR-4 ovarian,2020 nM
same,TGI,OVCAR-4 ovarian,> 100 µM
same,GI50,OVCAR-5 ovarian,1070 nM
same,TGI,OVCAR-5 ovarian,> 100 µM
same,GI50,OVCAR-8 ovarian,3.12 µM
same,TGI,OVCAR-8 ovarian,> 100 µM
same,GI50,PC-3 prostate,3.97 µM
same,TGI,PC-3 prostate,> 100 µM
same,GI50,RPMI-8226 leukemia,2560 nM
same,TGI,RPMI-8226 leukemia,> 100 µM
same,GI50,RXF 393 renal,4.03 µM
same,TGI,RXF 393 renal,> 100 µM
same,GI50,SF-268 CNS,2730 nM
same,TGI,SF-268 CNS,> 100 µM
same,GI50,SF-295 CNS,3.63 µM
same,TGI,SF-295 CNS,> 100 µM
same,GI50,SF-539 CNS,4.66 µM
same,TGI,SF-539 CNS,> 100 µM
same,GI50,SK-MEL-2 melanoma,242 nM
same,TGI,SK-MEL-2 melanoma,1670 nM
same,GI50,SK-MEL-28 melanoma,32.6 nM
same,TGI,SK-MEL-28 melanoma,3.8 µM
same,GI50,SK-MEL-5 melanoma,435 nM
same,TGI,SK-MEL-5 melanoma,2910 nM
same,GI50,SK-OV-3 ovarian,3.54 µM
same,TGI,SK-OV-3 ovarian,> 100 µM
same,GI50,SN12C renal,2210 nM
same,TGI,SN12C renal,> 100 µM
same,GI50,SNB-19 CNS,4.52 µM
same,TGI,SNB-19 CNS,> 100 µM
same,GI50,SNB-75 CNS,4.39 µM
same,TGI,SNB-75 CNS,> 100 µM
same,GI50,SR leukemia,2560 nM
same,TGI,SR leukemia,> 25.2 µM
same,GI50,SW-620 colon,2430 nM
same,TGI,SW-620 colon,> 100 µM
same,GI50,T-47D breast,1370 nM
same,TGI,T-47D breast,> 27.1 µM
same,GI50,TK-10 renal,1610 nM
same,TGI,TK-10 renal,> 30.3 µM
same,GI50,U251 CNS,3.92 µM
same,TGI,U251 CNS,> 100 µM
same,GI50,UACC-257 melanoma,32.3 nM
same,GI50,UACC-62 melanoma,21.5 nM
same,TGI,UACC-62 melanoma,1410 nM
same,GI50,UO-31 renal,693 nM
same,TGI,UO-31 renal,> 25.3 µM
